{"source": "patent US11931347B2", "about": "“Method of screening for agents for differentiating stem cells” (MINERVA BIOTECHNOLOGIES CORPORATION, priority 2015, dated 2024)", "format_in_all_cases": "cell-based", "key": {"[1]": {"system": "human naïve state stem cells", "test": "stem cell drug screening assay on naïve state stem cells", "settings": "500 nM or 1 uM, cells from NME7AB or NME1 dimers, growth factor absent"}, "[2]": {"system": "SK-OV-3 MUC1* positive ovarian cancer cells", "test": "cancer cell proliferation assay (Calcein)", "settings": "96 hours (FIG. 112)", "method": "Small molecule inhibition of cancer cell proliferation studies were also performed on several cancer sub-types. […] The small molecules of the invention had the most robust effect on T47D breast cancer cells, which are highly positive for MUC1* growth factor receptor, and its activating ligands NME7AB and NME7-X1. […] For the cancer cell proliferation experiment cancer cells were plated at constant densities (6000 cells/well) into a 96-well White-walled/Clear-bottom Tissue Culture Treated plate (Corning Incorporated, Big Flats, N.Y.). Small molecule analogs are added at T=24 hours in media with 2% FBS. […] […] Calcein fluorescence (final concentration 0.5 uM) is used to assess cell viability. Cancer cell fluorescence is measured in a TECAN SAFIRE^2 spectrophotometer plate reader. The plate is then imaged using an Olympus IX71 fluorescence imaging microscope and montage of the resulting images are assembled using ImageJ."}, "[3]": {"system": "OV-90 MUC1* negative ovarian cancer cells", "test": "cancer cell proliferation assay (Calcein)", "settings": "96 hours (FIG. 114)"}}}
{"smiles": "Cc1sc2c(c1C)C(c1ccc(Cl)cc1)=N[C@@H](CC(=O)OC(C)(C)C)c1nnc(C)n1-2", "note": "[JQ1+, JQ1]", "values": [{"measurement": "effect on naïve stem cell differentiation and growth", "setting": "[1]", "result": "dramatically induced differentiation"}, {"measurement": "effect on naïve stem cell differentiation and growth", "setting": "[1]; listed as JQI", "result": "inhibitory effect"}, {"measurement": "effect on growth of SK-OV-3 cells", "setting": "[2]", "result": "slight effect"}, {"measurement": "effect on growth of OV-90 cells", "setting": "[3]", "result": "neither the compounds of the invention nor JQ1 or SU11274 had any apparent effect"}]}
